Laboratory results: patent publication US10239832B2, “N-(1-hydroxy-3-(pyrrolidinyl)propan-2-yl)pyrrolidine-3-carboxamide derivatives as glucosylceramide synthase inhibitors” (BIOMARIN PHARMACEUTICAL INC., priority 2013, dated 2019)

Target: T1, GCS (Canis lupus familiaris, UniProt A0A8I3MXG6)
T1 construct: endogenous in cells; host or cells: MDCK (Madin-Darby canine kidney) cells, whole-cell lysate
T1 sequence (A0A8I3MXG6 1-394): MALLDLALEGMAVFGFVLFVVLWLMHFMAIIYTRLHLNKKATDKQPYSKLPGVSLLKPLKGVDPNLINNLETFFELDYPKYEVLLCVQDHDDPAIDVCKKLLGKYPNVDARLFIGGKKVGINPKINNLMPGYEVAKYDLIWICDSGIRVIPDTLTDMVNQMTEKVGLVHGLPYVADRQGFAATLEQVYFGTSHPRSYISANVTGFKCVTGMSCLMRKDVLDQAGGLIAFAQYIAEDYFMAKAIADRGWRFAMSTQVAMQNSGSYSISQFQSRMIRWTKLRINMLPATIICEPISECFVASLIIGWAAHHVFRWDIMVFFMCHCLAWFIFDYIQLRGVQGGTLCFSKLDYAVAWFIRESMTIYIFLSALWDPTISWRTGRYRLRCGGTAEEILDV
Assay: GCS enzymatic assay (MDCK cell lysate, NBD-ceramide to glucosylceramide, LC/MS)
Type: biochemical, canine
Details: Table 2; class symbols A, B, C; the table does not say which of the assays; read-out: Data Range (IC50 values)
Procedure: This assay was modified based on the study by Larsen et al. (J. Lipid Res. 2011, 53, 282). Madin-Darby canine kidney (MDCK) cell lysate was prepared using M-PER Mammalian Protein Extraction Reagent (Thermal Scientific) in the presence of a protease inhibitor cocktail (Roche). Protein concentration was determined using BCA assay kit (Pierce). […] 0.1% DMSO was used as mock treatment or control. The reaction was terminated by adding 100 μL acetonitrile solution and subjected to LC/MS analysis.
The quantitative analysis of NBD-Ceramide and glucosylceramide was performed on a Shimadzu ultra-fast liquid chromatography (Shimadzu, Japan) coupled with API 4000 triple quadrupole mass spectrometer (Applied Biosystems, Concord, Ontario, Canada). Sample separation was conducted on a Waters Xbridge™ BEH130 C18, 100 mm×4.6 mm i.d, 3.5 μm (Milford, Mass., USA). The mobile phase consisted of water and acetonitrile supplemented with 0.1% formic acid (v/v). The flow rate was 1.0 mL/min. The initial mobile phase was 20% acetonitrile and was ramped in a linear fashion to 50% acetonitrile in 0.4 min. From 0.4 to 1.5 min, the gradient was ramped to 98% acetonitrile, and then was held at […] until 8.0 min. Acetonitrile was reset to 20% in 1.5 min, and maintained until 10.0 min. The total run time was 10.0 min. The MS/MS detection was performed in ESI positive mode. The mass transition of NBD-Ceramide was m/z 576.36→558.40 under the collision energy of 15 V, and the mass transition of glucosylceramide was m/z 738.35→558.40 under 21V collision energy. The cell lysate was diluted with equal volume of acetonitrile. Aliquots of 50 μL diluted samples were added to 1.5 mL tubes, and 100 μL of acetonitrile containing internal standard (100 ng/mL tolbutamide) were added for protein precipitation. The mixture were vortexed and then centrifuged at 13000 rpm for 10 min. 70 μL of supernatant were mixed with 140 μL of H2O and the final solution were injected for LC/MS/MS analysis and IC50's and/or percent inhibitions calculated.

SMILES	IC50
O=C(N[C@H](CN1CCC1)[C@H](O)c1cc(F)c2c(c1)OCCO2)[C@@H]1CCN(c2ccc3cc(F)ccc3c2)C1 [Compound 47, (R)-N-((1R,2R)-3-(azetidin-1-yl)-1-(8-fluoro-2,3-dihydrobenzo[b][1,4]dioxin-6-yl)-1-hydroxypropan-2-yl)-1-(6-fluoronaphthalen-2-yl)pyrrolidine-3-carboxamide]	1 to 30 nM
O=C(N[C@H](CN1CCCC1)[C@H](O)c1ccc(OC2CC2)c(Cl)c1)[C@@H]1CCN(c2cccc(-c3ccc(F)cc3)n2)C1 [Compound 126, (R)-N-((1R,2R)-1-(3-chloro-4-cyclopropoxyphenyl)-1-hydroxy-3-(pyrrolidin-1-yl)propan-2-yl)-1-(6-(4-fluorophenyl)pyridin-2-yl)pyrrolidine-3-carboxamide]	1 to 30 nM
O=C(N[C@H](CN1CCCC1)[C@H](O)c1ccc(OC2CC2)c(Cl)c1)[C@@H]1CCN(c2ccc3cc(Cl)sc3c2)C1 [Compound 109, (R)-N-((1R,2R)-1-(3-chloro-4-cyclopropoxyphenyl)-1-hydroxy-3-(pyrrolidin-1-yl)propan-2-yl)-1-(2-chlorobenzo[b]thiophen-6-yl)pyrrolidine-3-carboxamide]	30 to 100 nM
CC(C)(C)Oc1ccc([C@@H](O)[C@@H](CN2CCCC2)NC(=O)[C@@H]2CCN(c3ccc(Cl)cc3)C2)cc1Cl [Compound 135, (R)-N-((1R,2R)-1-(4-(tert-butoxy)-3-chlorophenyl)-1-hydroxy-3-(pyrrolidin-1-yl)propan-2-yl)-1-(4-chlorophenyl)pyrrolidine-3-carboxamide]	1 to 30 nM
O=C(N[C@H](CN1CCC1)[C@H](O)c1ccc(OC2CC2)cc1)[C@@H]1CCN(c2ccc3ccsc3c2)C1 [Compound 158, (R)-N-((1R,2R)-3-(azetidin-1-yl)-1-(4-cyclopropoxyphenyl)-1-hydroxypropan-2-yl)-1-(benzo[b]thiophen-6-yl)pyrrolidine-3-carboxamide]	30 to 100 nM
O=C(N[C@H](CN1CCCC1)[C@H](O)c1cc(F)c2c(c1)OCCO2)[C@@H]1CCN(c2cccc(-c3ccc(F)cc3)n2)C1 [Compound 124, (R)-N-((1R,2R)-1-(8-fluoro-2,3-dihydrobenzo[b][1,4]dioxin-6-yl)-1-hydroxy-3-(pyrrolidin-1-yl)propan-2-yl)-1-(6-(4-fluorophenyl)pyridin-2-yl)pyrrolidine-3-carboxamide]	1 to 30 nM
O=C(N[C@H](CN1CCC1)[C@H](O)c1cc(F)c2c(c1)OCCO2)[C@@H]1CCN(c2ccc3cc(Cl)sc3c2)C1 [Compound 108, (R)-N-((1R,2R)-3-(azetidin-1-yl)-1-(8-fluoro-2,3-dihydrobenzo[b][1,4]dioxin-6-yl)-1-hydroxypropan-2-yl)-1-(2-chlorobenzo[b]thiophen-6-yl)pyrrolidine-3-carboxamide]	1 to 30 nM
O=C(N[C@H](CN1CCC1)[C@H](O)c1ccc2c(c1)OCCO2)[C@@H]1CCN(c2ccc3cc(F)ccc3c2)C1 [Compound 79, (R)-N-((1R,2R)-3-(azetidin-1-yl)-1-(2,3-dihydrobenzo[b][1,4]dioxin-6-yl)-1-hydroxypropan-2-yl)-1-(6-fluoronaphthalen-2-yl)pyrrolidine-3-carboxamide]	1 to 30 nM
O=C(N[C@H](CN1CCCC1)[C@H](O)c1ccc2c(c1)OCCO2)[C@H]1CCN(c2ccc3cc(Cl)sc3c2)C1 [Compound 76E, (S)-1-(2-chlorobenzo[b]thiophen-6-yl)-N-((1R,2R)-1-(2,3-dihydrobenzo[b][1,4]dioxin-6-yl)-1-hydroxy-3-(pyrrolidin-1-yl)propan-2-yl)pyrrolidine-3-carboxamide]	1 to 30 nM

Same assay, conditions: Table 2; class symbols D, E, F, NA (not active); the table does not say which of the assays

SMILES	Data Range (% inhibition)
O=C(N[C@H](CN1CCCC1)[C@H](O)c1ccc2c(c1)OCCO2)C1CCN(c2ccc(Cl)c(Cl)c2)C1 (stereo in doubt) [Compound 8, (R)-1-(3,4-dichlorophenyl)-N-((1R,2R)-1-(2,3-dihydrobenzo[b][1,4]dioxin-6-yl)-1-hydroxy-3-(pyrrolidin-1-yl)propan-2-yl)pyrrolidine-3-carboxamide]	D (75-100%)
O=C(N[C@H](CN1CCCC1)[C@H](O)c1ccc(OCCN2CCC2)c(Cl)c1)[C@H]1CCN(c2ccc(Cl)cc2)C1 [Compound 60A, (S)-N-((1R,2R)-1-(4-(2-(azetidin-1-yl)ethoxy)-3-chlorophenyl)-1-hydroxy-3-(pyrrolidin-1-yl)propan-2-yl)-1-(4-chlorophenyl)pyrrolidine-3-carboxamide]	NA (not active—a negative value was generated for % inhibition)
O=C(N[C@H](CN1CCCC1)[C@H](O)c1ccc2c(c1)OCCO2)[C@H]1CCN(c2nc3c(s2)CCCC3)C1 [Compound 36G, (S)-N-((1R,2R)-1-(2,3-dihydrobenzo[b][1,4]dioxin-6-yl)-1-hydroxy-3-(pyrrolidin-1-yl)propan-2-yl)-1-(4,5,6,7-tetrahydrobenzo[d]thiazol-2-yl)pyrrolidine-3-carboxamide]	NA (not active—a negative value was generated for % inhibition)
Cn1ncc2cc(N3CC[C@@H](C(=O)N[C@H](CN4CCCC4)[C@H](O)c4ccc(OC5CC5)c(Cl)c4)C3)ccc21 [Compound 127, (R)-N-((1R,2R)-1-(3-chloro-4-cyclopropoxyphenyl)-1-hydroxy-3-(pyrrolidin-1-yl)propan-2-yl)-1-(1-methyl-1H-indazol-5-yl)pyrrolidine-3-carboxamide]	E (50-74% (or less than 75%))
Cn1ncc2cc(N3CC[C@@H](C(=O)N[C@H](CN4CCCC4)[C@H](O)c4cc(F)c5c(c4)OCCO5)C3)ccc21 [Compound 125, (R)-N-((1R,2R)-1-(8-fluoro-2,3-dihydrobenzo[b][1,4]dioxin-6-yl)-1-hydroxy-3-(pyrrolidin-1-yl)propan-2-yl)-1-(1-methyl-1H-indazol-5-yl)pyrrolidine-3-carboxamide]	E (50-74% (or less than 75%))
O=C(N[C@H](CN1CCCC1)[C@H](O)c1ccc(OCC(F)(F)F)nc1)[C@H]1CCN(c2ccc(F)cc2)C1 [Compound 34A, (S)-1-(4-fluorophenyl)-N-((1R,2R)-1-hydroxy-3-(pyrrolidin-1-yl)-1-(6-(2,2,2-trifluoroethoxy)pyridin-3-yl)propan-2-yl)pyrrolidine-3-carboxamide]	NA (not active—a negative value was generated for % inhibition)
O=C(N[C@H](CN1CCCC1)[C@H](O)c1ccc(OC2CC2)nc1)[C@H]1CCN(c2ccc(Cl)cc2)C1 [Compound 13C, (S)-1-(4-chlorophenyl)-N-((1R,2R)-1-(6-cyclopropoxypyridin-3-yl)-1-hydroxy-3-(pyrrolidin-1-yl)propan-2-yl)pyrrolidine-3-carboxamide]	F (1-49% (or less than 50%))

More lines, now with the values ahead:

Data Range (% inhibition)	SMILES
F (1-49% (or less than 50%))	O=C(N[C@H](CN1CCCC1)[C@H](O)c1ccc(OC2CC2)c(Cl)c1)[C@H]1CCN(c2ccc3cc(F)ccc3c2)C1 [Compound 84A, (S)-N-((1R,2R)-1-(3-chloro-4-cyclopropoxyphenyl)-1-hydroxy-3-(pyrrolidin-1-yl)propan-2-yl)-1-(6-fluoronaphthalen-2-yl)pyrrolidine-3-carboxamide]
F (1-49% (or less than 50%))	CN1CCC(Oc2ccc([C@@H](O)[C@@H](CN3CCCC3)NC(=O)[C@H]3CCN(c4ccc(Cl)cc4)C3)cc2Cl)CC1 [Compound 49A, (S)-N-((1R,2R)-1-(3-chloro-4-((1-methylpiperidin-4-yl)oxy)phenyl)-1-hydroxy-3-(pyrrolidin-1-yl)propan-2-yl)-1-(4-chlorophenyl)pyrrolidine-3-carboxamide]
F (1-49% (or less than 50%))	O=C(N[C@H](CN1CCCC1)[C@H](O)c1ccc2c(c1)OCCO2)[C@H]1CCN(c2cnc3cccnc3c2)C1 [Compound 90D, (S)-N-((1R,2R)-1-(2,3-dihydrobenzo[b][1,4]dioxin-6-yl)-1-hydroxy-3-(pyrrolidin-1-yl)propan-2-yl)-1-(1,5-naphthyridin-3-yl)pyrrolidine-3-carboxamide]
